{"source": "ChEMBL document CHEMBL1147343", "about": "“Isolation and identification of an antifungal naphthopyran derivative from Rhinacanthus nasutus” (1993)", "test_system": "Pyricularia oryzae", "experiment": "Antifungal activity against Pyricularia oryzae assessed as inhibition of spore germination", "format": "functional", "conditions": "read-out: ED50 (the source's name)", "data": [{"smiles": "CC1(C)COC2=C(C1)C(=O)c1ccccc1C2=O", "values": [{"measurement": "EC50", "result": 0.4, "unit": "µg/mL"}]}]}
